This is an account of results in US20030203969A1, “Pharmaceutically active aromatic guanylhydrazones” (priority 2000, published 2003).

Assay [1] deals with EBV. Put plainly: EBV replication in TPA-induced P3HR-1 cells (TaqMan PCR). Type of assay: cell-based, Epstein-Barr virus. As for the experimental part:
Human P3HR-1 cells are latently infected with EBV. Culturing these cells in the presence of phorbol ester induces a lytic infection cycle, resulting in stimulation of viral replication within the cells. Compound efficacy in this assay is determined using TaqMan PCR technology, and compound toxicity is measured by addition of Promega's Cell Titer Aqueous One Solution (metabolic dye).
1. P3HR-1 cells are counted by the trypan blue dye exclusion method, and the cell count/ml is determined. Cells are pelleted by centrifugation and washed once with PBS to minimize the basal level of virus released from untreated cells which spontaneously enter the lytic cycle and release virus.
2. Cells are resuspended in fresh media and adjusted to the appropriate cell density. Cells are then plated in the interior wells of 96-well round-bottom microtiter plates in a volume of 50 μl per well.
3. The phorbol ester TPA is added to appropriate wells in a volume of 50 μl per well to yield a final concentration of 15 ng/ml. Medium is added in place of TPA in three wells to serve as a negative control.
4. […]
5. A standard curve prepared from known copy numbers of DNA isolated from P3HR-1 cells and amplified is run with each plate in order to quantitate the DNA copy number in each original sample. The efficacy of the compound is determined by comparing DNA copy numbers from test wells with those of control wells.

Assay [2] deals with macrophage-tropic HIV-1Ba-L strain. The assay can be described thus: Inhibition of macrophage-tropic HIV-1 Ba-L replication in de novo infected PM1 cells (p24 antigen). It is filed as cell-based. The following applies: d10. As for the experimental part:
HIV replication was measured either by p24 HIV Antigen Capture Assay Kit (ELISA; HIVAG-1 Monoclonal kit BIA011; Abbott) following the manufacturer's recommendation, or by using the Quantiplex HIV-1 RNA 3.0 Assay (bDNA) system (Chiron Diagnostics). The latter assay is a signal amplification nucleic acid probe assay (employing a sandwich nucleic acid hybridization procedure) for direct quantitation of HIV RNA in human plasma. There, in brief, HIV-1 is first concentrated from plasma by centrifugation. After release of genomic HIV-1 RNA from the virions, the RNA is captured to a microwell by a set of specific, synthetic oligonucleotide capture probes. A set of target probes hybridize to both the viral RNA and the pre-amplifier probes. The capture probes, comprised of 17 individual capture extenders, and the target probes, comprised of 81 individual target extenders, bind to different regions of the pol gene of the viral RNA. The amplifier probe hybridizes to the pre-amplifier forming a branched DNA (bDNA) complex. Then, multiple copies of an alkaline phosphatase labeled probe are hybridized to this immobilized bDNA complex. Detection is achieved by incubating the entire complex with a chemoluminescent substrate. Light emission is directly proportional to the amount of HIV-1 RNA present in each sample, and results are recorded as relative light units by an appropriate analyzer.
Jurkat cells (species: human T-cell leukemia; special characteristics: cells are permissive for growth of T-cell tropic HIV strains; source:ATCC Cat.No. TIB 152) or PM1 cells (species: clonal derivative of human HUT 78 cells; special characteristics: cells are permissive for growth of macrophage-tropic and T-cell tropic HIV strains; source: Dr. Marvin Reitz, courtesy of the NIH AIDS Research and Reference Reagent Program Cat.No. 3038) were stimulated with Phytohemagglutinin (PHA-P, Product No. L9132 from Sigma) in a concentration of 2 μg/ml (1.5×10^6 cells/ml) and Hexadimethrine Bromide (Polybrene, Product No. H9268 from Sigma) in a concentration of 2 μg/ml (1.5×10^6 cells/ml) in RPMI 1640 medium containing 10% fetal calf serum (FCS, Pansystems GmbH) and antibiotics for 3 days.
For HIV-1 infection, 5×10^7 cells were resuspended in 500 μl culture medium without test drugs and incubated in a 50 ml blue-cap-tube at 37° C. for 5 hrs with HIV-1 high titer viral stocks. Jurkat cells were infected with the T-cell tropic strain HIV-1 NL4-3, PM1 cells with the macrophage tropic strain HIV-1 Ba-L (both from the NIH AIDS Research and Reference Reagent Program). After infection, cells were washed twice with PBS without Ca^2+ and Mg^2+ to avoid false positive p24 antigen determination. Cells were resuspended, and identical aliquots (1×10^6/ml) of infected cells were further cultured in 10 ml medium with test drugs at various concentrations, or in medium with DMSO as control for calculation of the inhibition of virus replication (in %].
Culture medium was changed and cells were split at days 3 and 7 of the experiments. Viability of the cells (Trypan-blue staining), cell counts and p24 antigen levels were determined at days 3, 7 and 10 of the experiments. No significant differences in cell viability were observed (˜85-90% living cells).
At day 10 of infection, the HIV strains replicated vigorously in untreated cultures. Numbers describe percent inhibition of HIV replication as compared to control experiments.

The term IC50 denotes the concentration needed to halve the response being measured. Low values mean greater potency, high ones weaker potency. On to `CC(=NNC(=N)N)c1cc(NC(=O)CCCCCCCCC(=O)Nc2cc(C(C)=NNC(=N)N)cc(C(C)=NNC(=N)N)c2)cc(C(C)=NNC(=N)N)c1` [Compound 4, N,N′-bis (3,5-diacetylphenyl) decane diamide tetrakis (amidinohydrazone)], for which the Comments result in assay [1] (EBV, P3HR1 cells) is on record as “Significant Activity”. In addition, the IC50 in assay [1] (EBV-infected P3HR1 cells, day 4) is 2.3 µM. In addition, the “percent inhibition of HIV replication as compared to control” value in assay [2] (0.5 μM) was 82%; in assay [2] (1.0 μM), 73%.
